In ChEMBL document CHEMBL1131699, “Monoacetyldiglycerides as new Ca2+ mobilizing agents in rat pancreatic acinar cells” (1999):
Calls of active or inactive are those of the source. No cut-off for these calls is given here.

Assays:
Rattus norvegicus [1] = species on record: Rattus norvegicus; test: Compound was tested in vitro for its ability to increase [Ca+2] in pancreatic acinar cells at a concentration of 0.01 mg/mL; Active; format: functional, cell-based
Rattus norvegicus [2] = species on record: Rattus norvegicus; test: Compound was tested in vitro for its ability to increase [Ca+2] in pancreatic acinar cells at a concentration of 0.01 mg/mL.; format: functional
Rattus norvegicus [3] = species on record: Rattus norvegicus; test: Compound was tested in vitro for its ability to increase the rate of [Ca+2] mobilization in pancreatic acinar cells; format: functional

SMILES	Increase in [Ca+2] (Rattus norvegicus [1])	Increase in [Ca+2] (Rattus norvegicus [2]) [nM]	Rate of [Ca+2] increase (Rattus norvegicus [3]) [nM/min]
CCCCCCCCCCCCCCCC(=O)OCC(COC(C)=O)OC(=O)[C@H]1C[C@@H]1c1ccccc1 (some centres undefined)	Active		
CC/C=C\C/C=C\C/C=C\CCCCCCCC(=O)OC(COC(C)=O)COC(=O)CCCCCCCCCCCCCCC (centres undefined)	Active		
CCCCC/C=C\C/C=C\C/C=C\C/C=C\CCCC(=O)OC(COC(C)=O)COC(=O)CCCCCCCCCCCCCCC (centres undefined)		32.8	
CCCCC/C=C\C/C=C\CCCCCCCC(=O)OC(COC(C)=O)COC(=O)CCCCCCCCCCCCCCC (centres undefined) [MOSEDIPIMOD]		84.9	9.8
CCCCCCCC/C=C\CCCCCCCC(=O)OC(COC(C)=O)COC(=O)CCCCCCCCCCCCCCC (centres undefined)		26.6	
CC/C=C\C/C=C\C/C=C\C/C=C\C/C=C\C/C=C\CCC(=O)OC(COC(C)=O)COC(=O)CCCCCCCCCCCCCCC (centres undefined)		75.2	26.7
CCCCCCCC/C=C\CCCCCCCC(=O)OCC(COC(C)=O)OC(=O)CCCCCCCCCCCCCCC (centres undefined)		31.2	
